Read-outs that look alike come from different tables or passages of the source.
Key:
[1] = cited from earlier work; for AUC0-2h: 600 mg ibuprofen dose
[2] = Oral bioavailability of ibuprofen crushed tablets in control rats; type: in vivo; details: male, Sprague-Dawley, rat, plasma, 20 mg/kg, oral 20 mg/kg ibuprofen as crushed tablets, read-out: AUC (0-8)
Method: The animal models are Adult male Sprague-Dawley rats with body weight of 250-300 g, and which were cared for in accordance with the principles and guidelines of the Canadian Council of Animal Care. All rats were catheterized in the right jugular vein for sample collection.
The tablets were crushed gently and small pieces were administered into the stomach via a plastic tube followed by 0.5 mL tap water. […] They had free access to water.

[3] = parts of drug dissolving in 10,000 parts of water; cited from earlier work

Question: For CC(C)Cc1ccc([C@H](C)C(=O)O)cc1 [S-ibuprofen, S(+)-2-(4-isobutylphenyl)propionic acid], which AUC0-2h ([1]; after dental extraction) is on record?
Answer: 7200 ± 5500 ng·h/mL

Question: And the AUC0-2h ([1]; before dental extraction)?
Answer: 14200 ± 6100 ng·h/mL

Question: For CC(C)Cc1ccc(C(C)C(=O)O)cc1 (racemic) [ibuprofen, (±)-2-(4-Isobutylphenyl)propionic acid], which AUC(0-t) [2] is on record?
Answer: 139000 ng·h/mL

Question: What about the “change in mean time to peak concentration caused by surgery” value ([1]; 200 mg and 600 mg doses, dental surgery) of the same compound?
Answer: two hour delay

Question: And the “AUC0-6h, effect of surgery” value ([1]; dental surgery)?
Answer: significantly reduced

Question: What about the solubility in water [3] of the same compound?
Answer: less than 1 part

Question: What does the source list for CC(C)Cc1ccc([C@@H](C)C(=O)O)cc1 [R-ibuprofen, R(−)-2-(4-isobutylphenyl)propionic acid]?
Answer: AUC0-2h ([1]; after dental extraction): 5800 ± 7100 ng·h/mL; AUC0-2h ([1]; before dental extraction): 14400 ± 9500 ng·h/mL

Source: patent US20050249808A1, “NSAIDs compositions containing tartaric acid” (priority 2001, published 2005)
